Experimental data: article PMC8426238, “Synthesis and preclinical evaluation of [^11C]MTP38 as a novel PET ligand for phosphodiesterase 7 in the brain” (European Journal of Nuclear Medicine and Molecular Imaging, 2021)
“And” between values parts separate entries of the source, which are not always exact repeats. Equal entries are not always repeated.

Assays:
Purinergic P2Y = test: off-target screen panel; format: binding; settings: Rat brain, [^35S]ATP-αS
PDE7 = test: PET imaging in rats with [^11C]MTP38; format: in vivo, Wistar rats; settings: unlabeled MTP38 0.5 mg/kg intravenously 2 min before radioligand
Protocol: Each rat was scanned multiple times with a shortest interval of 1 month. Rats were anesthetized with isoflurane (3% for induction and 2% for maintenance) throughout the experiment. The tail vein was cannulated for radioligand injection. Body temperature was maintained at around 37 °C using a heating pad. The head of the rat was fixed at the center of the field of view of an animal PET scanner (microPET Focus220, Siemens Medical Solutions, Malvern, USA). A 90-min list-mode data acquisition was started simultaneously with intravenous administration of [^11C]MTP38. The list-mode data were sorted into 3D sinograms, which were then Fourier-rebinned into 2D sinograms (frames: 10 s × 6, 30 s × 8, 1 min × 5, 2 min × 10, and 5 min × 12). The sinograms were reconstructed with a filtered back-projection algorithm using a Hanning filter with a cut-off at the Nyquist frequency (0.5 mm^−1).
Along with baseline scans, we conducted blockade PET experiments according to the following pretreatment protocols: (1) unlabeled MTP38 (0.5 mg/kg) was administered intravenously at 2 min before radioligand injection, and (2) MTP-X (100 mg/kg) was administered orally at 1 h before radioligand injection.
PET images were co-registered manually onto the magnetic resonance (MR) template image. Details of co-registration were described elsewhere. Regions of interest (ROIs) were placed on the striatum as a target region and on the cerebellum (gray matter) as a reference region according to the expression of PDE7B mRNA in the rat brain [6], and time-activity curves (TACs) were generated for each ROI. Radioactivity in the brain was normalized with injected radioactivity and body weight, and expressed as standardized uptake value (SUV). Then the SUV ratio between the striatum and cerebellum was obtained to estimate the radioligand binding in the target region in baseline and blockade experiments.

Thyroid Hormone = test: off-target screen panel; format: binding; settings: Rat liver, [^125I]Triiodothyronine
Glutamate, NMDA, Agonism = test: off-target screen panel; format: binding; settings: Rat cerebral cortex, [^3H]CGP-39653
[1] = target: T1, Serotonin (5-Hydroxytryptamine) 5-HT3 (Homo sapiens, UniProt P46098); test: off-target screen panel; format: binding; settings: Human recombinant, [^3H]GR-65630
T1 construct: purchased Eurofins Panlabs Discovery Services (Taiwan)

Endothelin ETB = target: T2, Endothelin ETB (Homo sapiens, UniProt P24530); test: off-target screen panel; format: binding; settings: Human recombinant, [^125I]Endothelin-1
T2 construct: purchased Eurofins Panlabs Discovery Services (Taiwan)

[2] = target: T3, Epidermal Growth Factor (EGF) (Homo sapiens, UniProt P00533); test: off-target screen panel; format: binding; settings: Human A431 cells, [^125I]EGF
T3 construct: purchased Eurofins Panlabs Discovery Services (Taiwan)

[3] = system: Calcium Channel L-Type, Benzothiazepine; test: off-target screen panel; format: binding; settings: Rat brain, [^3H]Diltiazem
Adrenergic β2 = target: T4, Adrenergic β2 (Homo sapiens, UniProt P07550); test: off-target screen panel; format: binding; settings: Human recombinant, [^3H]CGP-12177
T4 construct: purchased Eurofins Panlabs Discovery Services (Taiwan)

Solubility = format: physicochemical
Endothelin ETA = target: T5, Endothelin ETA (Homo sapiens, UniProt P25101); test: off-target screen panel; format: binding; settings: Human recombinant, [^125I]Endothelin-1
T5 construct: purchased Eurofins Panlabs Discovery Services (Taiwan)

Muscarinic M2 = target: T6, Muscarinic M2 (Homo sapiens, UniProt P08172); test: off-target screen panel; format: binding; settings: Human recombinant, [^3H]N-Methylscopolamine
T6 construct: purchased Eurofins Panlabs Discovery Services (Taiwan)

Sigma σ1 = target: T7, Sigma σ1 (Homo sapiens, UniProt Q99720); test: off-target screen panel; format: binding; settings: Human Jurkat cells, [^3H]Haloperidol
T7 construct: purchased Eurofins Panlabs Discovery Services (Taiwan)

Neuropeptide Y Y1 = target: T8, Neuropeptide Y Y1 (Homo sapiens, UniProt P25929); test: off-target screen panel; format: binding; settings: Human SK-N-MC cells, [^125I]Peptide YY
T8 construct: purchased Eurofins Panlabs Discovery Services (Taiwan)

Purinergic P2X = test: off-target screen panel; format: binding; settings: Rabbit urinary bladder, [^3H]α, β-Methylene-ATP
PDE8A1 = target: T9, PDE8A1 (Homo sapiens, UniProt O60658); test: PDE isozyme inhibition screen panel (Eurofins Panlabs); format: biochemical; settings: 1 μM of MTP38; human recombinant; read-out: Percent inhibition
T9 construct: purchased Eurofins Panlabs Discovery Services (Taiwan)
Protocol: (§1) In vitro inhibitory effects of MTP38 on 12 PDE isozymes (PDE1A, 2A, 3A, 4B1, 5A, 6, 7A, 7B, 8A1, 9A2, 10A2, and 11A4) were determined using a commercial screen panel at Eurofins Panlabs Discovery Services (Taiwan). The enzyme source was bovine retinal rod outer segments for PDE6 or human recombinants for the others. The inhibition percentage at 1 μM or half-maximal inhibitory concentration (IC50) value was calculated. All assays were conducted in duplicate. For IC50 determination, three independent runs were performed.

PDE6 = target: T10, PDE6 (Bos taurus, UniProt P11541+P23439); test: as above; format: biochemical; settings: 1 μM of MTP38; bovine retinal rod outer segments; read-out: Percent inhibition
T10 construct: The enzyme source was bovine retinal rod outer segments for PDE6; tissue Eurofins Panlabs Discovery Services (Taiwan); host or cells: bovine retinal rod outer segments
Protocol: as §1

PDE3A = target: T11, PDE3A (Homo sapiens, UniProt Q14432); test: as above; format: biochemical; settings: 1 μM of MTP38; human recombinant; read-out: Percent inhibition
T11 construct: purchased Eurofins Panlabs Discovery Services (Taiwan)
Protocol: as §1

PDE9A2 = target: T12, PDE9A2 (Homo sapiens, UniProt O76083); test: as above; format: biochemical; settings: 1 μM of MTP38; human recombinant; read-out: Percent inhibition
T12 construct: purchased Eurofins Panlabs Discovery Services (Taiwan)
Protocol: as §1

PDE7A = target: T13, PDE7A (Homo sapiens, UniProt Q13946); test: as above; format: biochemical; settings: human recombinant; geometric mean of three independent experiments
T13 construct: purchased Eurofins Panlabs Discovery Services (Taiwan)
Protocol: as §1

PDE2A = target: T14, PDE2A (Homo sapiens, UniProt O00408); test: as above; format: biochemical; settings: human recombinant; geometric mean of three independent experiments
T14 construct: purchased Eurofins Panlabs Discovery Services (Taiwan)
Protocol: as §1

PDE11A4 = target: T15, PDE11A4 (Homo sapiens, UniProt Q9HCR9); test: as above; format: biochemical; settings: 1 μM of MTP38; human recombinant; read-out: Percent inhibition
T15 construct: purchased Eurofins Panlabs Discovery Services (Taiwan)
Protocol: as §1

PDE1A = target: T16, PDE1A (Homo sapiens, UniProt P54750); test: as above; format: biochemical; settings: 1 μM of MTP38; human recombinant; read-out: Percent inhibition
T16 construct: purchased Eurofins Panlabs Discovery Services (Taiwan)
Protocol: as §1

PDE7B = target: T17, PDE7B (Homo sapiens, UniProt Q9NP56); test: as above; format: biochemical
T17 construct: purchased Eurofins Panlabs Discovery Services (Taiwan)
Protocol: as §1

PDE5A = target: T18, PDE5A (Homo sapiens, UniProt O76074); test: as above; format: biochemical; settings: 1 μM of MTP38; human recombinant; read-out: Percent inhibition
T18 construct: purchased Eurofins Panlabs Discovery Services (Taiwan)
Protocol: as §1

[4] = target: T19, Nicotinic Acetylcholine α1, Bungarotoxin (Homo sapiens, UniProt P02708+P07510+Q07001); test: off-target screen panel; format: binding; settings: read-out: Inhibition (%) at 1 μM
T19 construct: purchased Eurofins Panlabs Discovery Services (Taiwan)
T19 sequence (Q07001 22-517): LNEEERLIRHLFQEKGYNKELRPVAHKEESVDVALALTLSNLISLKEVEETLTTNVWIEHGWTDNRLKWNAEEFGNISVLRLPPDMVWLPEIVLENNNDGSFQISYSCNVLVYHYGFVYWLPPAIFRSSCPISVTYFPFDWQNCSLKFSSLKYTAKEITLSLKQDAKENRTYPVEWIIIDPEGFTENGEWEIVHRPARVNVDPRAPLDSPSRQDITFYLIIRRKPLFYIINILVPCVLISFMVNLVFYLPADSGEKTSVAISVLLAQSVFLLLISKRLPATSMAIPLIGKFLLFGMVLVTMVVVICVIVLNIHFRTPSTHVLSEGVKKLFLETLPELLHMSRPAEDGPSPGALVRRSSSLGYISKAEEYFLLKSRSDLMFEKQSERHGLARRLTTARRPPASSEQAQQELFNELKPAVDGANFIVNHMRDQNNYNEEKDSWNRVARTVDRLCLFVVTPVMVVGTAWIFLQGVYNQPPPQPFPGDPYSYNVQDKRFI
T19 sequence (P02708 21-457): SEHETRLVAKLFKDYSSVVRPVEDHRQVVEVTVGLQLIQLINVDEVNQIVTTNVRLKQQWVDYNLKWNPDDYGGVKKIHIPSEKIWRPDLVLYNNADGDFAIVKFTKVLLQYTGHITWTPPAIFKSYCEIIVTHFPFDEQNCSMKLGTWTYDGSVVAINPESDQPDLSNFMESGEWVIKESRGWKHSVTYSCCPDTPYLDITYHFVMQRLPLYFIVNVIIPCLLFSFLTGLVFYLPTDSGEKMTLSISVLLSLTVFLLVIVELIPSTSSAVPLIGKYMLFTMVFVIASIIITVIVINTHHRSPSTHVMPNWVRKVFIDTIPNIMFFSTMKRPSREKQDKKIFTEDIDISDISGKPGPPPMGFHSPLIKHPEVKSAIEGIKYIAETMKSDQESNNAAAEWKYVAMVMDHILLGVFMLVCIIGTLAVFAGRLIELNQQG
T19 sequence (P07510 23-517): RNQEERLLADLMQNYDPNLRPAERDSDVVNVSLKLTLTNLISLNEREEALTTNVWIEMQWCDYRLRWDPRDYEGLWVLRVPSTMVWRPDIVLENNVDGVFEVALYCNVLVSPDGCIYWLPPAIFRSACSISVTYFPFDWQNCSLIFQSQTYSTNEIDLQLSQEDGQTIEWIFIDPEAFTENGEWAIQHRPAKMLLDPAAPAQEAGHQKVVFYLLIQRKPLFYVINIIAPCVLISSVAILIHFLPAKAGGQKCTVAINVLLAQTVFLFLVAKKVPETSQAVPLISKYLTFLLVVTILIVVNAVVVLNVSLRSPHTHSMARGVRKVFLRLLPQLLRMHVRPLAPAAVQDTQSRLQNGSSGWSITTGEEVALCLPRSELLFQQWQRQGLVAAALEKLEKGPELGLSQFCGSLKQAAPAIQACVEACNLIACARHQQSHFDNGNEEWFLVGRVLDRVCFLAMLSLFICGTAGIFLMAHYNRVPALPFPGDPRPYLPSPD
T19 sequence (P11230 24-501, further chain): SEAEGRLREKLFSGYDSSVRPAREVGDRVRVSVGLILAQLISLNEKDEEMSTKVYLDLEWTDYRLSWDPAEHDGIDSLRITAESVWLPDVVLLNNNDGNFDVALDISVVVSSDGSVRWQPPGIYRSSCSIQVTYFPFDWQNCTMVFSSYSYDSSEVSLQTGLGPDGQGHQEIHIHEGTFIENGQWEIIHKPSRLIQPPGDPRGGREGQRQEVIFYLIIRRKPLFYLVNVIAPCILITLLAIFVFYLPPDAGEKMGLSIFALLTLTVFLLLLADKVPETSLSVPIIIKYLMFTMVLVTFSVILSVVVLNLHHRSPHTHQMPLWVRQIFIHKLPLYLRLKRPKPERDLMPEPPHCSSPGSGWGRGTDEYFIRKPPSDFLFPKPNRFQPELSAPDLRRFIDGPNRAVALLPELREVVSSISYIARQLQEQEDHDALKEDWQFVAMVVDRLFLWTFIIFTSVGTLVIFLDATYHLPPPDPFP

T14 sequence (O00408 whole entry): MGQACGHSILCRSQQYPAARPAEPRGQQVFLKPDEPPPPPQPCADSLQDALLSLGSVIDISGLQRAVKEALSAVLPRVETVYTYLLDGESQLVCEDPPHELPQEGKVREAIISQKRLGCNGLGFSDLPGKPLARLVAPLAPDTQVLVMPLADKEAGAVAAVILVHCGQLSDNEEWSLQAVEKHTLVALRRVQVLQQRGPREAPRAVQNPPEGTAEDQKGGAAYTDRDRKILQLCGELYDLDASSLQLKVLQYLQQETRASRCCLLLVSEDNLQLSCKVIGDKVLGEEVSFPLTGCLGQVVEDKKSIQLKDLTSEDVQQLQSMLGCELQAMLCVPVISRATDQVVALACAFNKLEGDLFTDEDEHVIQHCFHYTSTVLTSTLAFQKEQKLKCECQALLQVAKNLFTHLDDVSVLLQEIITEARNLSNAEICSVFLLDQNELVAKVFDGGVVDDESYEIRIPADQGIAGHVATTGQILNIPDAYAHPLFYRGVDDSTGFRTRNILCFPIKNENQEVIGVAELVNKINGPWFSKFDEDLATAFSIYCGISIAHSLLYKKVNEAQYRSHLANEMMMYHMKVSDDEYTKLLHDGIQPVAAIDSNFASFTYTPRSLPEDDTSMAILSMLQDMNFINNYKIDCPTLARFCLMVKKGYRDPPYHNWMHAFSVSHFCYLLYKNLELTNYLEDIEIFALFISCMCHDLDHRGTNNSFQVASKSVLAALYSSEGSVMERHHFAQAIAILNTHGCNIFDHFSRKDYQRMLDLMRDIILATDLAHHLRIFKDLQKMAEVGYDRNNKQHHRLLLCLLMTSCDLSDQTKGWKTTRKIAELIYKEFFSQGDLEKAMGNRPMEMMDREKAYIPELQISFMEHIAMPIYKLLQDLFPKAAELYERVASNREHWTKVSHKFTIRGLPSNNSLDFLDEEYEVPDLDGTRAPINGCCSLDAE
T17 sequence (Q9NP56 whole entry): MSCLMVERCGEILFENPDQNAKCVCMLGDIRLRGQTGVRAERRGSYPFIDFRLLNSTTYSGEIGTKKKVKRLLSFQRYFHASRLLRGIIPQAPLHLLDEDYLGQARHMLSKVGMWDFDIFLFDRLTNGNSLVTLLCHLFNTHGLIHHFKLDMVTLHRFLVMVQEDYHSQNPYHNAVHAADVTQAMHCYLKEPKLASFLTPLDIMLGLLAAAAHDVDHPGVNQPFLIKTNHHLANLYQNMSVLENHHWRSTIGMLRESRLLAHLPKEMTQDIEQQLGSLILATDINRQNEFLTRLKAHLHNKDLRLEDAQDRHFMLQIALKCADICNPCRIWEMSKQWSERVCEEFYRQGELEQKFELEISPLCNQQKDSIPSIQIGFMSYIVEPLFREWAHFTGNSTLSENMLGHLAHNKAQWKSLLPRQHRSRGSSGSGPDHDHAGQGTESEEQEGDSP
T4 sequence (P07550 whole entry): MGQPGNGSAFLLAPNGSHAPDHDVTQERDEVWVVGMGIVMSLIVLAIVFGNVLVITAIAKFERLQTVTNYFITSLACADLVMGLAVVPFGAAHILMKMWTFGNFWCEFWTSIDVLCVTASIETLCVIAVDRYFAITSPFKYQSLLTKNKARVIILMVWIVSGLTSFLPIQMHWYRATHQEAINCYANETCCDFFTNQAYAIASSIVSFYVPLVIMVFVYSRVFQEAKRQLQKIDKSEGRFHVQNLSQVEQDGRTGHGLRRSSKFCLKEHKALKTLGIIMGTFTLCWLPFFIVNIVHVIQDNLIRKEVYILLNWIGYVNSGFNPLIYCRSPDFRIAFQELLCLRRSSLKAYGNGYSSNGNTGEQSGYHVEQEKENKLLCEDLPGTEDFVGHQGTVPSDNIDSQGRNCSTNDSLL
T6 sequence (P08172 whole entry): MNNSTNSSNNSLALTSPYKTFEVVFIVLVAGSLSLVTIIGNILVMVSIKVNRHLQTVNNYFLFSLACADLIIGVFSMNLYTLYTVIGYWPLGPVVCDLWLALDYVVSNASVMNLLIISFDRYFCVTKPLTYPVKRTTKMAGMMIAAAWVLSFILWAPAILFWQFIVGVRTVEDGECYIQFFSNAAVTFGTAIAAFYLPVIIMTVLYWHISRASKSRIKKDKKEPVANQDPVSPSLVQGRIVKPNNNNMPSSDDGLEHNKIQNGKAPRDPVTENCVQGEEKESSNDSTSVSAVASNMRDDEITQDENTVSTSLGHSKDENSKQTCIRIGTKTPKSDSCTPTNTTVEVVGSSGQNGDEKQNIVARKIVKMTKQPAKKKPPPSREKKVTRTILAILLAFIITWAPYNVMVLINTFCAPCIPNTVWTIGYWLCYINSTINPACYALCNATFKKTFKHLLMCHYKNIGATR
T9 sequence (O60658 whole entry): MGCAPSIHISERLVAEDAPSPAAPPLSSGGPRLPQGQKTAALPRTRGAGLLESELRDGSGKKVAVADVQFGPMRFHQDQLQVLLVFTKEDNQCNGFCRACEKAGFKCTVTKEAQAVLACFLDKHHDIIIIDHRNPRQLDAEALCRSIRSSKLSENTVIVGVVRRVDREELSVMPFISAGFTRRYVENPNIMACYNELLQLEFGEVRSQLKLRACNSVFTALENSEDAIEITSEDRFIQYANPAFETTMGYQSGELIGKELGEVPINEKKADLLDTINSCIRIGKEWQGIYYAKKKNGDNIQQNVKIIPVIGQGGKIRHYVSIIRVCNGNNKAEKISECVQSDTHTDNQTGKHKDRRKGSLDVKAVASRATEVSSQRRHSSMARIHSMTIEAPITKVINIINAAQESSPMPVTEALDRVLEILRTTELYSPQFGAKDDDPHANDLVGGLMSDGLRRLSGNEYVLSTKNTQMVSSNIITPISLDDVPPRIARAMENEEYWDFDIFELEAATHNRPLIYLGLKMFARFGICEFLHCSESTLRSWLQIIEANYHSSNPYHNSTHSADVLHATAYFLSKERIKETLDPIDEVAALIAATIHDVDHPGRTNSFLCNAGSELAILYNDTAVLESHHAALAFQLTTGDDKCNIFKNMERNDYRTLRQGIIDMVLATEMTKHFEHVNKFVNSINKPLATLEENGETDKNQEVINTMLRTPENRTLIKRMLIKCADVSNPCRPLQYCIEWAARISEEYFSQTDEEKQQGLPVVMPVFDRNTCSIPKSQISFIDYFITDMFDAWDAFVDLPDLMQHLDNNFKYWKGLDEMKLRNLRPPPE

Structure (SMILES): C[C@@H]1CC[C@H](C)N(c2nnc3c(N)ncc(C#N)n23)C1 (relative stereo) [MTP38, 8-amino-3-(2S*,5R*-dimethyl-1-piperidyl)-[1,2,4]triazolo[4,3-a]pyrazine-5-carbonitrile]
- Inhibition (%) at 1 μM (Purinergic P2Y): -20%
- striatum-to-cerebellum ratio of SUV of [^11C]MTP38 after pretreatment (PDE7): around 1.1
- Inhibition (%) at 1 μM (Thyroid Hormone): 7%
- Inhibition (%) at 1 μM (Glutamate, NMDA, Agonism): -3%
- inhibition at 1 µM [1]: -11%
- inhibition at 1 µM (Endothelin ETB): 3%
- inhibition at 1 µM [2]: 1%
- Inhibition (%) at 1 μM [3]: 16%
- inhibition at 1 µM (Adrenergic β2): -14%
- solubility (Solubility): low solubility
- inhibition at 1 µM (Endothelin ETA): -10%
- inhibition at 1 µM (Muscarinic M2): -9%
- inhibition at 1 µM (Sigma σ1): 6%
- inhibition at 1 µM (Neuropeptide Y Y1): -13%
- Inhibition (%) at 1 μM (Purinergic P2X): -3%
- inhibition at 1 µM (PDE8A1): < 50%
- inhibition at 1 µM (PDE6): < 50%
- inhibition at 1 µM (PDE3A): < 50%
- inhibition at 1 µM (PDE9A2): < 50%
- IC50 (PDE7A): 9.81 nM
- IC50 (PDE2A): > 100 nM and 114 nM
- inhibition at 1 µM (PDE11A4): < 50%
- inhibition at 1 µM (PDE1A): < 50%
- Ki (PDE7B; from IC50 1.21 nM, [S] 100 nM, Km 30–70 nM, read-out: Ki estimated by Cheng-Prusoff equation): 0.28 to 0.5 nM
- IC50 (PDE7B; human recombinant, geometric mean of three independent experiments): 1.21 nM
- inhibition at 1 µM (PDE5A): < 50%
- inhibition at 1 µM [4]: 15%
